Literature values in patent US20230037437A1, “FORMULATIONS FOR USE IN THE TREATMENT OF DIFFERENT TYPES OF ADDICTIONS AND DEPENDENCE ON ADDICTIVE SUBSTANCES” (UNIBIOLABS INTERNACIONAL S.A DE C.V, priority 2019, published 2023).

Tests used:
[1] = tested on: cocaine abusers; conditions: patients taking magnesium versus placebo
[2] = target: serotonin transporter (Homo sapiens, UniProt P31645)
[3] = target: IKr channel (hERG) (Homo sapiens, UniProt Q12809)
[4] = target: dopamine transporter (DAT) (Homo sapiens, UniProt Q01959); conditions: relative to cocaine
Chain of dopamine transporter (DAT) (Q01959 whole entry, species assumed): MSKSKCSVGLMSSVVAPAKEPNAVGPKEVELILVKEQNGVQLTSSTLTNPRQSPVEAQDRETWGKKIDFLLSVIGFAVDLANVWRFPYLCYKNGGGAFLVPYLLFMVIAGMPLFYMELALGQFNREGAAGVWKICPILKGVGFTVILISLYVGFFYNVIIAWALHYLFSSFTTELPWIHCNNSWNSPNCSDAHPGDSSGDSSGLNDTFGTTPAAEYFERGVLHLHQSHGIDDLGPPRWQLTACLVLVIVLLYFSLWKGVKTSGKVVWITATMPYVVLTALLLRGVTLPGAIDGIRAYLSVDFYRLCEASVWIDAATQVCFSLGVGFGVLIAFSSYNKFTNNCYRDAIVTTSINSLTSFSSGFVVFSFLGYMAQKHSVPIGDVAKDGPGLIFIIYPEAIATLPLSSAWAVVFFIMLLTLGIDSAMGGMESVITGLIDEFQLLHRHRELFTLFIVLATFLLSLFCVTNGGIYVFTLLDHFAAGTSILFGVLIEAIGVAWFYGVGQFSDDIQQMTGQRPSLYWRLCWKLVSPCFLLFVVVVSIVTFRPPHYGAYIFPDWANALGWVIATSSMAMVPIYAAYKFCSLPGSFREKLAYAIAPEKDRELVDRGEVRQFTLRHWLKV

Chain of serotonin transporter (P31645 whole entry): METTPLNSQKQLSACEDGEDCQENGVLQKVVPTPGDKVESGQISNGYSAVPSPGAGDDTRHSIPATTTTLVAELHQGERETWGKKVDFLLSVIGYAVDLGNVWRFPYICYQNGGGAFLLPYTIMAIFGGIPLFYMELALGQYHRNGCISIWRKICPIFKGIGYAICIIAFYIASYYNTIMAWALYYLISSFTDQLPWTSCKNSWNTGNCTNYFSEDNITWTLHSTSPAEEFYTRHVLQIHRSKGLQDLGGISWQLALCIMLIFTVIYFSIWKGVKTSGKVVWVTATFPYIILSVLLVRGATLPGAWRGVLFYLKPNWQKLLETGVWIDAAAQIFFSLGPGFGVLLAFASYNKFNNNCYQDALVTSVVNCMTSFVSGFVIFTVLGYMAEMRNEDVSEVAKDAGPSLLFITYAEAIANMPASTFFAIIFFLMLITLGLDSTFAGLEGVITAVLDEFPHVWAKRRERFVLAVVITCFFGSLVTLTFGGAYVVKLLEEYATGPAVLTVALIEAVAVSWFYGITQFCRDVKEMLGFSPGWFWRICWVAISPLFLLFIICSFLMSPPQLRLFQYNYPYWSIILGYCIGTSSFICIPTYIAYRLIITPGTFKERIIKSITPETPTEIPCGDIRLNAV
Chain of IKr channel (hERG) (Q12809 whole entry): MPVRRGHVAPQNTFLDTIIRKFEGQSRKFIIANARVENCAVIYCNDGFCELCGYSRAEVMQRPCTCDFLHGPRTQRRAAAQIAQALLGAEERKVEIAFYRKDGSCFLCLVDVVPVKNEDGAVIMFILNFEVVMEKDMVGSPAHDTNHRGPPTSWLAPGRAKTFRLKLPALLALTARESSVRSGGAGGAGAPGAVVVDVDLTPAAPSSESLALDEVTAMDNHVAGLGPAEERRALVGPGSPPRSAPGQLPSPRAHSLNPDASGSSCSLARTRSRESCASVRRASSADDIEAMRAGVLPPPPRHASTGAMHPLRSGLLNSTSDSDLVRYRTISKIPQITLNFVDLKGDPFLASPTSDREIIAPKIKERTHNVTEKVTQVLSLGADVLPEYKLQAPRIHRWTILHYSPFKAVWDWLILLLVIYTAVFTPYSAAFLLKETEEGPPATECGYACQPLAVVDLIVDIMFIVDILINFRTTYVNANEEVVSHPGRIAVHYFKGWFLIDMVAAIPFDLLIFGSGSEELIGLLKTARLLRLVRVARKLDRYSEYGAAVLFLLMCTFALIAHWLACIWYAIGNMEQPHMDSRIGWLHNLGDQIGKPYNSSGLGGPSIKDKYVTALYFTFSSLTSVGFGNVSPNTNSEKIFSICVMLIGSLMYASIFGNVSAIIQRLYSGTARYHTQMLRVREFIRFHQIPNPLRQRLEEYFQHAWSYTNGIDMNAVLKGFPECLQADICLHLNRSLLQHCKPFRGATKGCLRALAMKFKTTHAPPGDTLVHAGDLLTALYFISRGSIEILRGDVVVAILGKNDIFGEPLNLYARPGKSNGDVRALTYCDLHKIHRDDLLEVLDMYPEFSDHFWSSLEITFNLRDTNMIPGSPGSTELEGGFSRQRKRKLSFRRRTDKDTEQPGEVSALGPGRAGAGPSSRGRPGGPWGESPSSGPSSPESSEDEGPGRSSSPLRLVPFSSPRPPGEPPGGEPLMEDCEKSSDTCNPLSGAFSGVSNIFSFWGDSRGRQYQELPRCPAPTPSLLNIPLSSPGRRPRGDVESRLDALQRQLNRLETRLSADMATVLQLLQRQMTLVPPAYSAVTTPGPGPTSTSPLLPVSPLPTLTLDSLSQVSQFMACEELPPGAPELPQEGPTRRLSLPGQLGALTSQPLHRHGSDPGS

Structure (SMILES): [Mg+2] [magnesium]
- cocaine craving scores, lower than in patients taking placebo [1]: 78%

Structure (SMILES): Fc1ccc(C(OCCN2CCN(CCCc3ccccc3)CC2)c2ccc(F)cc2)cc1 [GBR 12909, Vanoxerine]
- affinity to the serotonin transporter [2]: nanomolar affinity
- IKr channel (hERG) block [3]: potent IKr channel blocker
- binding to the target site on the dopamine transporter (DAT), stronger than cocaine [4]: approximately 50 times
